Data published in ChEMBL document CHEMBL3352615, “Synthesis and evaluation of ether-linked demethylepipodophyllotoxin dimers” (Bioorg Med Chem Lett, 2014).
Activity calls are given as the source filed them. No cut-off for these calls is given here.

How the values were obtained:
[1] = system: A549; test: Cytotoxicity against human A549 cells after 48 hrs by Alamar Blue assay; format: functional, cell-based; conditions: A549, 48 h
[2] = system: L6; test: Cytotoxicity against rat L6 cells after 71.5 hrs by Presto Blue assay; format: cell-based; conditions: L6, 71.5 h
[3] = biological target: DNA topoisomerase 2-alpha (Homo sapiens) (UniProt P11388); test: Inhibition of human topoisomerase-2 alpha assessed as Escherichia coli pBR322 DNA cleavage at 100 uM after 30 mins by agarose electrophoresis
[4] = Selectivity ratio of IC50 for rat L6 cells to IC50 for human A549 cells; format: ADME, cell-based; conditions: L6 cells and A549 cells, read-out: Ratio IC50

Chain of DNA topoisomerase 2-alpha (Homo sapiens) (P11388 whole entry): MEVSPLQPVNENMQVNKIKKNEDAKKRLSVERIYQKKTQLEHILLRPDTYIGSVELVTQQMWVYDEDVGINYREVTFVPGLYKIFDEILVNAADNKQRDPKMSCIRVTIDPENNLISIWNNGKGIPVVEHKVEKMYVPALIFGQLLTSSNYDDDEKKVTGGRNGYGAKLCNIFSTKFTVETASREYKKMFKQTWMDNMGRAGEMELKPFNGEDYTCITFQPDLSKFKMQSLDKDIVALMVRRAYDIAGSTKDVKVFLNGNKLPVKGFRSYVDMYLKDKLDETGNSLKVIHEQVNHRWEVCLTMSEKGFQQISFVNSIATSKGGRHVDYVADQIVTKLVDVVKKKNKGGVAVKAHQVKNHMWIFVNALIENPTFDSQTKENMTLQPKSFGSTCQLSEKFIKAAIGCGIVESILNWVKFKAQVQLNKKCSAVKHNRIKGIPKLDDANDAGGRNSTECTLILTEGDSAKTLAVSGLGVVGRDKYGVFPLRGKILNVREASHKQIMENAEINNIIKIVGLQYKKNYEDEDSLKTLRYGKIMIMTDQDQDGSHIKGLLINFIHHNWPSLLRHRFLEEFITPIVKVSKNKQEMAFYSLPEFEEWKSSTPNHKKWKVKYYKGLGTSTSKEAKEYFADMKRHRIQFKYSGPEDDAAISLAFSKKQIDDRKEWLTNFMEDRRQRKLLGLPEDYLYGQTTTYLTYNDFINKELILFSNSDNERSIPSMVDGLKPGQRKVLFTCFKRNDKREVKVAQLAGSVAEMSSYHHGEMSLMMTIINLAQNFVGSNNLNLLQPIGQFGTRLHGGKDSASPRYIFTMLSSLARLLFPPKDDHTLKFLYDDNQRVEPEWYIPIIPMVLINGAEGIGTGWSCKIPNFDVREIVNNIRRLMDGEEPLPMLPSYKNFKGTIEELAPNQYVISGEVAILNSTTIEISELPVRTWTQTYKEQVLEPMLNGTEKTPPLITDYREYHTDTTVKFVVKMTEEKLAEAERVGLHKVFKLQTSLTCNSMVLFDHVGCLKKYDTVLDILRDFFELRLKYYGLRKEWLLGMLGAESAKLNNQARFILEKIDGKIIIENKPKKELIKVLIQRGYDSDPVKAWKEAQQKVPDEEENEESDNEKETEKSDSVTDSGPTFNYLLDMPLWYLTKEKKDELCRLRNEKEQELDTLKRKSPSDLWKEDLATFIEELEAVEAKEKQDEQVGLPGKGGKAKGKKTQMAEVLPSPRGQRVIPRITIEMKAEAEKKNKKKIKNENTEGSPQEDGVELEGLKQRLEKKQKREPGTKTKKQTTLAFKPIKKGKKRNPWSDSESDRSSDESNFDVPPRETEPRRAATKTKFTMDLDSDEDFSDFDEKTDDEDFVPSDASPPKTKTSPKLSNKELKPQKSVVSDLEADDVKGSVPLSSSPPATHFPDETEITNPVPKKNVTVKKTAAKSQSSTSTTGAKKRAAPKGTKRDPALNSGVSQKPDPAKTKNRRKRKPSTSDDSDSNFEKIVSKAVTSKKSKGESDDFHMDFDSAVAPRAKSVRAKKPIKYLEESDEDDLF

Row | SMILES | IC50 [1] [nM] | IC50 [2] [µM] | inhibition [3] | selectivity ratio [4]
1 | COc1cc([C@@H]2c3cc4c(cc3[C@@H](OCCCCCCO[C@@H]3c5cc6c(cc5[C@@H](c5cc(OC)c(O)c(OC)c5)[C@H]5C(=O)OC[C@@H]53)OCO6)[C@H]3COC(=O)[C@H]23)OCO4)cc(OC)c1O | 120 | 0.3 | Active | 2.5
2 | COc1cc([C@@H]2c3cc4c(cc3[C@@H](OCc3ccc(CO[C@@H]5c6cc7c(cc6[C@@H](c6cc(OC)c(O)c(OC)c6)[C@H]6C(=O)OC[C@@H]65)OCO7)cc3)[C@H]3COC(=O)[C@H]23)OCO4)cc(OC)c1O | 360 | 0.6 | Active | 1.7
3 | COc1cc([C@@H]2c3cc4c(cc3[C@@H](OCc3ccccc3)[C@H]3COC(=O)[C@H]23)OCO4)cc(OC)c1O | 3860 | 4.55 | Active | 1.2
4 | COc1cc([C@@H]2c3cc4c(cc3[C@@H](OCCCCO[C@@H]3c5cc6c(cc5[C@@H](c5cc(OC)c(O)c(OC)c5)[C@H]5C(=O)OC[C@@H]53)OCO6)[C@H]3COC(=O)[C@H]23)OCO4)cc(OC)c1O | 70 | 0.3 | Active | 4.3
5 | CCCCO[C@@H]1c2cc3c(cc2[C@@H](c2cc(OC)c(O)c(OC)c2)[C@H]2C(=O)OC[C@@H]21)OCO3 | 2870 | 4.62 | Active | 1.6
6 | CCCCCCO[C@@H]1c2cc3c(cc2[C@@H](c2cc(OC)c(O)c(OC)c2)[C@H]2C(=O)OC[C@@H]21)OCO3 | 5970 | 4.55 | Active | 0.76
7 | COc1cc([C@@H]2c3cc4c(cc3[C@@H](O[C@@H]3O[C@@H]5CO[C@@H](C)O[C@H]5[C@H](O)[C@H]3O)[C@H]3COC(=O)[C@H]23)OCO4)cc(OC)c1O [ETOPOSIDE] | 2870 | 19 | Active | 6.7
